Series [1] deals with Colo 320/MDR-LRP human colonic adenocarcinoma cell line. Description: Cytotoxicity (MTT) on resistant Colo 320 cells. The series is classed as cell-based. To be noted: for IC50: Homo sapiens, COLO 320, 24 h, MTT, read-out: Colo 320 (IC50 µM) Mean; for SI MRC-5/Colo 320: ratio IC50 non-tumour cells / IC50 cancer cells. The text has this:
(§1) Three cell lines have been used in this study: the doxorubicin-sensitive Colo 205 (CCL-222, ATCC, Manassas, VA, USA) human colonic adenocarcinoma cell line; the multidrug resistant Colo 320/MDR-LRP expressing P-gp (MDR1)-LRP (CCL-220.1, ATCC) human colonic adenocarcinoma cell line; and the MRC-5 human embryonal lung fibroblast cell line (CCL-171, ATCC). The colon adenocarcinoma cell lines were purchased from LGC Promochem (Teddington, UK), and the MRC-5 cell line was purchased from Sigma-Aldrich (Merck KGaA, Darmstadt, Germany). Their culture conditions are as follows: Colo 205 (CCL-222, ATCC) and Colo 320/MDR-LRP expressing P-gp (MDR1)-LRP (CCL-220.1, ATCC) human colon adenocarcinoma cell lines were cultured in RPMI 1640 medium, supplemented with 10% FBS, 2 mM L-glutamine, 1 mM Na-pyruvate, and […]. The cell lines were incubated at 37 °C, 5% CO2, and 95% air atmosphere. The semi-adherent human colon cancer cells were detached with a Trypsin-Versene (EDTA) solution for 5 min at 37 °C. MRC-5 human embryonal lung fibroblast cells were cultured in EMEM containing 4.5 g/L of glucose and supplemented with a non-essential amino acid mixture, a selection of vitamins, and 10% FBS. The cell lines were incubated at 37 °C, 5% CO2, and 95% air atmosphere.
(§2) The effects of increasing concentrations of the compounds on cell growth were tested in 96-well flat-bottomed microtiter plates. Moreover, 10^4 of human colonic adenocarcinoma cells in 100 μL of the medium (RPMI-1640) were added to each well, except for the medium control wells. The adherent human embryonic lung fibroblast cell line was seeded in the EMEM medium for 4 h before the assay. The two-fold serial dilutions of the compounds were made in a separate plate (0.19–100 μM), and then transferred to the plates containing the adherent corresponding cell line. Culture plates were incubated at 37 °C for 24 h. At the end of the incubation period, 20 μL of MTT (thiazolyl blue tetrazolium bromide) solution (from a 5 mg/mL stock solution) were added to each well. After incubation at 37 °C for 4 h, 100 μL of sodium dodecyl sulfate (SDS) solution (10% SDS in 0.01 M HCl) was added to each well, and the plates were further incubated at 37 °C overnight. Cell growth was determined by measuring the optical density (OD) at 540 nm (ref. 630 nm) with a Multiscan EX ELISA reader (Thermo Labsystems, Cheshire, WA, USA). Inhibition of cell growth was expressed as IC50 values, defined as the inhibitory dose that reduces the growth of the cells exposed to the tested compounds by 50%. IC50 values and the SD of triplicate experiments were calculated by using GraphPad Prism software version 5.00 for Windows, with a non-linear regression curve fit (GraphPad Software, San Diego, CA, USA; www.graphpad.com, accessed on 12 July 2021). Doxorubicin (from a 2 mg/mL stock solution, Teva Pharmaceuticals) was used as a positive control.
(§3) The selectivity indexes (SI) were calculated as the ratio of the IC50 value in the non-tumour cells and the IC50 in the cancer cell lines. The compound’s activity towards cancer cells is considered as strongly selective if the selectivity index (SI) value is higher than 6, moderately selective if 3 < SI < 6, slightly selective if 1 < SI < 3, and non-selective if SI is lower than 1 [16].

Series [2] deals with Colo 205 human colonic adenocarcinoma cell line. Description: Cytotoxicity (MTT) on sensitive Colo 205 cells. To be noted: for IC50: Homo sapiens, COLO 205, 24 h, MTT, read-out: Colo 205 (IC50 µM) Mean; for SI MRC-5/Colo 205: ratio IC50 non-tumour cells / IC50 cancer cells. The series is classed as cell-based.
Description: as §1, §2, §3

The nature of series [3]: Cytotoxicity (MTT) on normal MRC-5 fibroblasts. To be noted: human. The series is classed as cell-based.
Description: as §1, §2

Series [4] deals with HepG2 (hepatocellular carcinoma). Description: Cytotoxicity on HepG2 cells. It counts as cell-based, human. To be noted: ratio IC50 non-tumour cells / IC50 cancer cells.
The test system is the same in series [5]. Description: Cytotoxicity on HepG2 cells. The series is classed as cell-based. To be noted: Homo sapiens. How it is done:
(§4) The activity of selenoesters was tested on several cancer cell lines, including HepG2 (hepatocellular carcinoma, CCL-23TM, ATCC); HeLa (cervical adenocarcinoma, CCL-2TM, ATCC); B16 (skin melanoma, CCL-6322TM, ATCC); and a non-cancerous cell line, HDF (human dermal fibroblasts, Sigma-Aldrich). HepG2, HeLa, B16, and HDF cell lines were cultivated in EMEM medium supplemented with 10% FBS, 2 mM L-glutamine, and 1% penicillin-streptomycin mixture. The HaCaT cell line was cultivated in DMEM medium supplemented with 10% FBS and 1% penicillin-streptomycin mixture. All of the cells were cultivated in a CO2 incubator (5% CO2, 37 °C). Twice per week, the cell lines were passaged according to a standardized protocol with a trypsin-EDTA solution.
as §3

The subject of a further series is HaCaT cell line. Description: Toxicity on HaCaT cells (IC10 used as dose). It counts as cell-based. To be noted: Homo sapiens, concentration inhibiting 10% of the population, highest non-toxic concentration, read-out: Dose IC10. How it is done: as §4, with “solution. […]” for “solution.”
Wound healing activity of selenoesters was evaluated as the ability of the cells to migrate and close the gap created on the monolayer of human keratinocytes (HaCaT cell line). The tested substances were applied in the highest possible non-toxic concentration (IC10, concentration inhibiting 10% of the population). In general, ketone-selenoesters were more toxic (except K4 and K1) than cyano-selenoesters (except N4); therefore, they were applied at lower doses (0.17–0.30 µM) when compared to cyanoselenoesters (0.36–0.64 µM). Compounds K1, K4, and N4 were applied at a concentration of 0.30, 0.46, and 0.20 µM, respectively. As could be seen in Table 8, all ketone-selenoesters stimulated wound healing more effectively in comparison to both untreated control (p < 0.0000005) and allantoin (p < 0.00005). […] Only samples N1, N2, N4, and N7 closed effectively the damaged wound in 24 h, with the gap closure around 70%.

The subject of series [6] is HeLa (cervical adenocarcinoma). Description: Cytotoxicity on HeLa cells. The series is classed as cell-based. To be noted: Homo sapiens. Here is the method: as §4, §3
Series [7] relates to HeLa (cervical adenocarcinoma). Description: Cytotoxicity on HeLa cells. It counts as cell-based, human. To be noted: ratio IC50 non-tumour cells / IC50 cancer cells.
For the next series, the system named is B16 (skin melanoma). Description: Cytotoxicity on B16 cells. It counts as cell-based, murine. To be noted: Mus musculus. Here is the method:
as §4, §3

The test system of series [8] is resistant Colo 320 colon adenocarcinoma cells expressing the ABCB1 transporter. Description: Checkerboard combination assay with doxorubicin. The series is classed as cell-based, human. To be noted: starting conc. 10 µM. Here is the method:
A checkerboard microplate method was applied to study the effect of drug interactions between the selenocompounds and the chemotherapeutic drug doxorubicin on resistant Colo 320 colon adenocarcinoma cells expressing the ABCB1 transporter. Results were expressed in terms of the combination index (CI) values at 50% growth inhibition (ED50), which were determined by using CompuSyn software to plot 4 or 5 data points for each ratio.
To perform the experiment, the dilutions of doxorubicin were made in a horizontal direction in 100 µL, and the dilutions of the Se-compounds were made vertically in the microtiter plate in a volume of 50 µL. The cells were re-suspended in the culture medium and distributed into each well in 50 µL portions containing 6000 cells. The plates were incubated for 72 h at 37 °C in a CO2 incubator. The cell growth rate was determined after MTT staining. At the end of the incubation period, 20 μL of MTT solution was added to each well. After incubation at 37 °C for 4 h, 100 μL of SDS was added to each well and the plates were further incubated at 37 °C overnight. The optical density (OD) was measured at 540/630 nm with the Multiscan EX ELISA reader.

Series [9] has as its system MDR Colo 320 adenocarcinoma cells. Description: Apoptosis induction (Annexin V-FITC / propidium iodide). To be noted: 20 µM. It counts as cell-based, human. Here is the method: The assay was carried out using an Annexin V-FITC Apoptosis Detection Kit Cat. No. PF 032 from Calbiochem (EMD Biosciences. Inc. La Jolla. CA), according to the manufacturer's instructions. […] The cell suspension was distributed into 1 mL aliquots (1 × 10^6 cells) into a 24-well microplate and incubated overnight at 37 °C, with 5% CO2. On the following day, the medium was removed and a fresh medium was added to the cells. The cells were incubated in the presence of Se-compounds for 3 h at 37 °C. […] After a 3 h induction period, the culture medium was removed, the cells were washed with PBS, and a fresh medium was added to the cells. The 24-well plates were incubated overnight at 37 °C, with 5% CO2. After the incubation, the supernatant was collected in a microfuge tube and 200 μL of 0.25 trypsin (Trypsin-Versene) was added to the wells until the cells detached from the surfaces of the wells. The cells were centrifuged at 2000× g for 2 min at room temperature, the supernatant was removed, and the cells were re-suspended in fresh serum-free medium. After this procedure, apoptosis assay was carried out according to the rapid protocol of the kit using Annexin V-FITC and propidium iodide staining. […] The data were analysed by FlowJo^TM software (BD Biosciences, San Jose, NJ, USA).

Series [10] deals with ABCB1 (P-glycoprotein) in Colo 320 colonic adenocarcinoma cells (Homo sapiens, UniProt P08183). Description: ABCB1 inhibition, rhodamine 123 accumulation by flow cytometry. To be noted: 0.2 µM. Here is the method: The inhibition of the ABCB1 multidrug efflux pump ABCB1 by the tested compounds was evaluated using flow cytometry, measuring the retention of rhodamine 123 by ABCB1 (P-glycoprotein) in Colo 320 colonic adenocarcinoma cells. Briefly, the cell number of colonic adenocarcinoma cells were adjusted to 2 × 10^6 cells/mL, re-suspended in serum-free RPMI-1640 medium in the case of colonic adenocarcinoma cells, and distributed in 0.5 mL aliquots into Eppendorf centrifuge tubes. The tested compounds were added at different concentrations (0.2 and 2 µM; from 1 and 10 mM stock solutions, respectively), and the samples were incubated for 10 min at room temperature. Tariquidar was applied as the positive control (0.2 µM final concentration), and DMSO was used as the solvent control (at 2 v/v%). Next, 10 µL (5.2 µM final concentration) of the fluorochrome rhodamine 123 (Sigma, St. Louis, MO, USA) was added to the samples and the cells were incubated for 20 min at 37 °C. After the incubation period, the cells were washed twice and re-suspended in 0.5 mL PBS for analysis. The fluorescence of the gated cell population was measured with a Partec CyFlow® flow cytometer (Partec, Münster, Germany). The percentage of the mean fluorescence intensity was calculated for the treated MDR cells as compared with the untreated cells. The results were obtained from a representative flow cytometry experiment in which at least 20,000 individual cells of the overall population were evaluated for the rhodamine 123 retained inside the cells. The fluorescence activity ratio (FAR) was calculated based on the following equation, which relates the measured fluorescence values: FAR=Colo320treated / Colo320control/Colo205treated / Colo205control
The parameters evaluated from flow cytometry experiments were: Forward Scatter Count (FSC, provides information about cell size); Side Scatter Count (SSC, proportional to cell granularity or internal complexity); FL-1 (Mean fluorescence of the cells), and Fluorescence Activity Ratio (FAR), which was calculated by the equation given above.
Background: Flow cytometry measures light scatter and fluorescence of single cells or particles in a stream.

Read-outs that look alike come from different tables or passages of the source. Marks after values point to notes of the source that are not given here.

Chain of ABCB1 (P-glycoprotein) in Colo 320 colonic adenocarcinoma cells (P08183 whole entry): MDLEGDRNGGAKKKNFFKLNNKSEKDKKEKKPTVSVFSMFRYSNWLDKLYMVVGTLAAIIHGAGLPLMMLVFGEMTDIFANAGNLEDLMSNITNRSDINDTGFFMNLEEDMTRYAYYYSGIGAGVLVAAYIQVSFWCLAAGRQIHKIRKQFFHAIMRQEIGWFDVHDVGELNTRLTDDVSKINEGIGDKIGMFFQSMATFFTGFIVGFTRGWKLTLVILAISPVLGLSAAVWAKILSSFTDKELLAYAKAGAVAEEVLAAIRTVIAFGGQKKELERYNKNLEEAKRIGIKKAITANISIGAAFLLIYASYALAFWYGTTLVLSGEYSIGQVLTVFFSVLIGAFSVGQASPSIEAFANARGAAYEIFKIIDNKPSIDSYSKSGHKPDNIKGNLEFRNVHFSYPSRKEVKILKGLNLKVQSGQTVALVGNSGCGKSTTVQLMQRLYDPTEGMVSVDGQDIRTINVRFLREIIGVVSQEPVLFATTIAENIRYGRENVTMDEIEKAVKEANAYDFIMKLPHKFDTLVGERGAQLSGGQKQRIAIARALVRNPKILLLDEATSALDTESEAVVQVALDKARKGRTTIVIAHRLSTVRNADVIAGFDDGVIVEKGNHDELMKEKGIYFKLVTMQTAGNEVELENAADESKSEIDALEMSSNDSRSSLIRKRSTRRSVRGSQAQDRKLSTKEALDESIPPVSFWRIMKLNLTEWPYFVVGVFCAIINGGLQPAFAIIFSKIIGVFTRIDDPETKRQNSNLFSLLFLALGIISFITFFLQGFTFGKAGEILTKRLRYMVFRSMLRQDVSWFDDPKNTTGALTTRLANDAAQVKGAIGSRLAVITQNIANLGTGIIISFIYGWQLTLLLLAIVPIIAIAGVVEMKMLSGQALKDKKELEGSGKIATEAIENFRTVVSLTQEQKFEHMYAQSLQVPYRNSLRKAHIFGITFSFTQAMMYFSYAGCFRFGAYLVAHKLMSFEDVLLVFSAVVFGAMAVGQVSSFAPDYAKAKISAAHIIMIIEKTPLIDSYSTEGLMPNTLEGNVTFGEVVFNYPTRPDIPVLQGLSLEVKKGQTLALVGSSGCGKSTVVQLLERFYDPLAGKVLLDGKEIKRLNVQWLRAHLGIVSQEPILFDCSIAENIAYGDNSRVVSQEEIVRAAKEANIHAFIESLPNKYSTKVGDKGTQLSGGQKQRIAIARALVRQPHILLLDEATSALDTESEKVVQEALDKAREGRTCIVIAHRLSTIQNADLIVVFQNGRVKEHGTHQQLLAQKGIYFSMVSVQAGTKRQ

For the molecule `COc1cccc2c1C(=O)c1c(O)c3c(c(O)c1C2=O)C[C@@](O)(C(=O)CO)C[C@@H]3O[C@H]1C[C@H](N)[C@H](O)[C@H](C)O1` [Dox., doxorubicin, reference compound], in [1], the IC50 is 7.61 µM and the “SI MRC-5/Colo 320” value was 0.36. Also, in [2], the IC50 amounted to 3.46 µM and the “SI MRC-5/Colo 205” value is reported as 0.79. Also, the IC50 at 24 h in series [3] (MRC-5 embryonal lung fibroblast cells, 24 h, MTT, read-out: MRC-5 (IC50 µM) Mean) amounted to 2.73 µM.
Take `N#CC[Se]C(=O)c1cccc(C(F)(F)F)c1` [N5, Se-(Cyanomethyl) 3-(Trifluoromethyl)benzoselenoate]: the “SI MRC-5/HepG2” value in series [4] is >6 *. In addition, the IC50 turned out to be 9.8 µM in [5]; 5.22 µM in [1]; 2.1 µM in series [2]; 2.5 µM in series [6]; 1.4 µM in the series with B16 (skin melanoma). In addition, the “SI MRC-5/Colo 320” value in [1] is listed as >6 *. Besides, the “SI MRC-5/Colo 205” value in [2] is recorded as >6 *. The IC50 at 24 h in series [3] was over 100 µM. Moreover, the IC10 in the series on HaCaT cell line came to 600 nM. Also, the “SI MRC-5/HeLa” value in series [7] is listed as >6 *. Besides, the “Type of Interaction” value is recorded as “Strong antagonism” in series [8] (ratio 1.2:1); “Strong antagonism” in [8] (ratio 2.4:1); “Slight antagonism” in [8] (ratio 4.8:1); “Additive effect” in series [8] (ratio 9.6:1); “Slight antagonism” in series [8] (ratio 19.2:1); “Moderate antagonism” in series [8] (ratio 38.4:1).
As for `c1ccc2c(c1)Nc1c(ccc3ccccc13)S2` [M627, 12H-benzo(α)phenothiazine, reference compound], in series [9] (positive control), the “Cell Death (%) Treated Sample-Untreated Sample” value is given as 0.00%; the “Early Apoptosis (%) Treated Sample-Untreated Sample” value came to 13.3%; the “Late Apoptosis (%) Treated Sample-Untreated Sample” value is reported as 36.1%; the “Total Apoptotic Events (Early + Late, %)” value was 49.4%. Moreover, the “Apoptosis Quotient (%)” value in series [9] (reference) is reported as 100%.
On to `COc1cc2c(cc1OC)CN(CCc1ccc(NC(=O)c3cc(OC)c(OC)cc3NC(=O)c3cnc4ccccc4c3)cc1)CC2` [Tariquidar, reference compound], for which, in series [10], the “FSC (Forward Scatter Count)” value was determined as 1957 and the “SSC (Side Scatter Count)” value came out at 1074. Besides, in series [10] (rhodamine 123, FAR above 2 considered effective), the “FAR (fluorescence activity ratio)” value is listed as 28.04.

For orientation: IC50 means the concentration that inhibits the measured activity by half. A word on the IC10: it is the concentration needed for an effect of 10%.

The record behind these values is article PMC8465942, “Cyano- and Ketone-Containing Selenoesters as Multi-Target Compounds against Resistant Cancers” (Cancers, 2021).
